Source: ChEMBL document CHEMBL1125711, “Flavins as potential antimalarials. 2. 3-Methyl-10-(substituted-phenyl) flavins” (J Med Chem, 1991)

What was measured:
Format in all cases: functional
[1] = system: Plasmodium vinckei vinckei; test: Increase in mean survival days of Plasmodium inoculated mice (Mus musculus) after 70 mg/Kg intraperitoneal dose
Mus musculus [2] = organism: Mus musculus; test: Effective dose required to obtain a parasitaemia of 40% 48 hours after treatment in mice
[3] = system: Plasmodium vinckei vinckei; test: Antimalarial activity against Plasmodium vinckei V52 on 10 mg/kg intraperitoneal dose
Mus musculus [4] = test: Antimalarial activity was evaluated against Plasmodium vinckei V52 after intraperitoneal administration at dose 15 mg/kg
Mus musculus [5] = test: Antimalarial activity was evaluated against Plasmodium vinckei vinckei V52 after intraperitoneal administration at dose 25 mg/kg
[6] = system: Plasmodium vinckei vinckei; test: Antimalarial activity against Plasmodium vinckei V52 on 30 mg/kg intraperitoneal dose
Mus musculus [7] = test: Antimalarial activity was evaluated against Plasmodium vinckei vinckei V52 after intraperitoneal administration at dose 40 mg/kg
Mus musculus [8] = test: Antimalarial activity was evaluated against Plasmodium vinckei V52 after intraperitoneal administration at dose 70 mg/kg
[9] = system: Plasmodium vinckei vinckei; test: Antimalarial activity against Plasmodium vinckei V52 after 20 mg/kg intraperitoneal dose
Mus musculus [10] = test: Increase in mean survival days was determined in mice after ip administration of 10 mg/kg; conditions: route intraperitoneal
Mus musculus [11] = test: Increase in mean survival days was determined in mice after ip administration of 30 mg/kg; conditions: route intraperitoneal
Mus musculus [12] = test: Increase in mean survival days was determined in mice after ip administration of 50 mg/kg; conditions: route intraperitoneal
Mus musculus [13] = test: Antimalarial activity was evaluated against Plasmodium vinckei V52 after intraperitoneal administration at dose 50 mg/kg
Mus musculus [14] = test: Increase in mean survival days was determined in mice after ip administration of 20 mg/kg; conditions: route intraperitoneal
[15] = system: Plasmodium vinckei vinckei; test: Antimalarial activity against Plasmodium vinckei V52 on 70 mg/kg intraperitoneal dose
Mus musculus [16] = test: Increase in mean survival days was determined in mice after ip administration of 15 mg/kg; conditions: route intraperitoneal
Mus musculus [17] = test: Increase in mean survival days was determined in mice after ip administration of 25 mg/kg; conditions: route intraperitoneal
Mus musculus [18] = test: Increase in mean survival days was determined in mice after ip administration of 40 mg/kg; conditions: route intraperitoneal
Mus musculus [19] = test: Increase in mean survival days was determined in mice after ip administration of 70 mg/kg; toxic; conditions: route intraperitoneal
Mus musculus [20] = test: Antimalarial activity was evaluated against Plasmodium vinckei V52 after intraperitoneal administration at dose 25 mg/kg
Mus musculus [21] = test: Increase in mean survival days was determined in mice after ip administration of 30 mg/kg; toxic; conditions: route intraperitoneal
Mus musculus [22] = test: Increase in mean survival days was determined in mice after ip administration of 25 mg/kg; toxic; conditions: route intraperitoneal
Mus musculus [23] = test: Antimalarial activity was evaluated against Plasmodium vinckei vinckei V52 after intraperitoneal administration at dose 50 mg/kg
Mus musculus [24] = test: Antimalarial activity was evaluated against Plasmodium vinckei V52 after intraperitoneal administration at dose 60 mg/kg
Mus musculus [25] = test: Increase in mean survival days was determined in mice after ip administration of 60 mg/kg; conditions: route intraperitoneal
Mus musculus [26] = test: Antimalarial activity was evaluated against Plasmodium vinckei V52 after intraperitoneal administration at dose 30 mg/kg
Mus musculus [27] = test: Antimalarial activity was evaluated against Plasmodium vinckei V52 after intraperitoneal administration at dose 10 mg/kg

| Compound | Mean survival days [1] [days] | Cured [3] [%] | Cured [6] [%] | Cured [9] [%] | Mean survival days (Mus musculus [10]) [days] | Mean survival days (Mus musculus [11]) [days] | Mean survival days (Mus musculus [14]) [days] | Cured [15] [%] | other results |
| --- | --- | --- | --- | --- | --- | --- | --- | --- | --- |
| Cn1c(=O)nc2n(-c3cc(Cl)cc(Cl)c3)c3ccccc3nc-2c1=O | 16.5 | 100 | 100 | 100 | – | – | – | – | ED40 (Mus musculus [2]): 40.2 µmol/kg; Cured (Mus musculus [4]): 100%; Cured (Mus musculus [5]): 100%; Cured (Mus musculus [7]): 100%; Cured (Mus musculus [8]): 60% |
| Cc1ccc(-n2c3nc(=O)n(C)c(=O)c-3nc3ccccc32)cc1 | 0 | 0 | 0 | – | 0 | 0.2 | – | – | Mean survival days (Mus musculus [12]): 0.3 days; Cured (Mus musculus [13]): 0%; Cured (Mus musculus [8]): 0% |
| CSc1cccc(-n2c3nc(=O)n(C)c(=O)c-3nc3ccccc32)c1 | 0 | 0 | 0 | 0 | 0.2 | 0 | 0 | 0 | – |
| Cn1c(=O)nc2n(-c3cccc(F)c3)c3ccccc3nc-2c1=O | – | 0 | 0 | 0 | 0.2 | 0.2 | 0 | 0 | Mean survival days (Mus musculus [16]): 0.2 days; Mean survival days (Mus musculus [17]): 0 days; Mean survival days (Mus musculus [18]): 0.8 days; Mean survival days (Mus musculus [12]): 0 days; Mean survival days (Mus musculus [19]): -1 days; Cured (Mus musculus [4]): 0%; Cured (Mus musculus [20]): 0%; Cured (Mus musculus [7]): 0%; Cured (Mus musculus [13]): 20% |
| CCc1cccc(-n2c3nc(=O)n(C)c(=O)c-3nc3ccccc32)c1 | 0.3 | 0 | 0 | 0 | – | 0 | 0 | – | Mean survival days (Mus musculus [16]): 0 days; Mean survival days (Mus musculus [17]): 0 days; Cured (Mus musculus [5]): 0%; Cured (Mus musculus [8]): 0% |
| CSc1ccc(-n2c3nc(=O)n(C)c(=O)c-3nc3ccccc32)cc1 | 0 | 0 | 0 | 0 | 0.2 | 0.5 | 0.5 | 0 | – |
| Cn1c(=O)nc2n(-c3ccc(Cl)cc3F)c3ccccc3nc-2c1=O | – | 0 | 0 | 0 | 1 | – | 4 | – | Mean survival days (Mus musculus [21]): -2 days |
| CCc1ccc(-n2c3nc(=O)n(C)c(=O)c-3nc3ccccc32)cc1 | -0.4 | 0 | 0 | 0 | 0.2 | 0 | 0.3 | 0 | ED40 (Mus musculus [2]): 281 µmol/kg |
| Cn1c(=O)nc2n(-c3ccc(C(=O)O)cc3)c3ccccc3nc-2c1=O | -0.2 | 0 | 0 | – | 0 | 0.2 | – | 0 | – |
| Cn1c(=O)nc2n(-c3ccc(F)c(F)c3)c3ccccc3nc-2c1=O | – | 0 | 0 | 0 | 0 | 0 | -0.5 | 0 | Mean survival days (Mus musculus [19]): -1 days |
| Cc1ccc(-n2c3nc(=O)n(C)c(=O)c-3nc3ccccc32)cc1Cl | 0 | 0 | – | 0 | 0 | 0 | – | 0 | ED40 (Mus musculus [2]): 456 µmol/kg |
| Cn1c(=O)nc2n(-c3ccccc3Cl)c3ccccc3nc-2c1=O | – | 0 | 0 | – | 0 | – | – | 0 | Mean survival days (Mus musculus [21]): -0.3 days; Mean survival days (Mus musculus [19]): -2 days |
| Cn1c(=O)nc2n(-c3ccc(Cl)cc3Cl)c3ccccc3nc-2c1=O | – | 0 | 0 | – | 1.7 | – | – | – | Mean survival days (Mus musculus [16]): 0.5 days; Mean survival days (Mus musculus [22]): -1.2 days; Mean survival days (Mus musculus [21]): -1 days; Cured (Mus musculus [4]): 0%; Cured (Mus musculus [5]): 0% |
| CCCCc1ccc(-n2c3nc(=O)n(C)c(=O)c-3nc3ccccc32)cc1 | 0.5 | 0 | 0 | 0 | 0 | 0 | 0 | – | Mean survival days (Mus musculus [16]): 0 days; Mean survival days (Mus musculus [17]): 0.1 days; Mean survival days (Mus musculus [12]): 0 days; Cured (Mus musculus [4]): 0%; Cured (Mus musculus [5]): 0%; Cured (Mus musculus [23]): 0%; Cured (Mus musculus [8]): 0% |
| COc1cccc(-n2c3nc(=O)n(C)c(=O)c-3nc3ccccc32)c1 | 0 | 0 | 0 | 0 | 0 | 0 | 0 | 0 | – |
| CN(C)c1ccc(-n2c3nc(=O)n(C)c(=O)c-3nc3ccccc32)cc1 | 0 | 0 | – | 0 | 0 | 0 | – | 0 | – |
| Cn1c(=O)nc2n(-c3ccc(C(F)(F)F)cc3)c3ccccc3nc-2c1=O | – | 0 | 80 | 0 | 0 | 2 | 0 | 100 | ED40 (Mus musculus [2]): 135 µmol/kg; Cured (Mus musculus [13]): 100%; Cured (Mus musculus [24]): 100% |
| Cn1c(=O)nc2n(-c3ccc(Cl)c(Cl)c3)c3ccccc3nc-2c1=O | 0 | 0 | – | 0 | 0 | 0 | – | – | Mean survival days (Mus musculus [12]): 0 days; Cured (Mus musculus [23]): 0%; Cured (Mus musculus [8]): 0% |
| Cc1cccc(-n2c3nc(=O)n(C)c(=O)c-3nc3ccccc32)c1 | 0.3 | 0 | 0 | 0 | 0.8 | 0 | 0.5 | 0 | Mean survival days (Mus musculus [16]): 0 days; Mean survival days (Mus musculus [17]): 0 days; Mean survival days (Mus musculus [12]): 0.5 days; Cured (Mus musculus [4]): 0%; Cured (Mus musculus [20]): 0%; Cured (Mus musculus [13]): 0% |
| Cn1c(=O)nc2n(-c3ccc(O)cc3)c3ccccc3nc-2c1=O | 0 | 0 | – | 0 | 0 | 0.2 | – | 0 | – |
| Cn1c(=O)nc2n(-c3cc(C(F)(F)F)ccc3Cl)c3ccccc3nc-2c1=O | – | 0 | 0 | 0 | 0 | – | 0 | – | Mean survival days (Mus musculus [16]): 0.2 days; Mean survival days (Mus musculus [22]): 0 days; Mean survival days (Mus musculus [21]): -0.4 days; Cured (Mus musculus [4]): 0%; Cured (Mus musculus [20]): 0% |
| Cc1cc(Cl)ccc1-n1c2nc(=O)n(C)c(=O)c-2nc2ccccc21 | – | 0 | 0 | 0 | 0 | – | 1.2 | – | Mean survival days (Mus musculus [22]): -1.5 days; Mean survival days (Mus musculus [21]): -2 days; Cured (Mus musculus [5]): 0% |
| Cn1c(=O)nc2n(-c3ccc(Cl)c(C(F)(F)F)c3)c3ccccc3nc-2c1=O | 0.2 | 0 | 0 | 0 | 0 | 0 | 0 | 0 | Mean survival days (Mus musculus [16]): 0 days; Cured (Mus musculus [4]): 0% |
| Cn1c(=O)nc2n(-c3cccc(Cl)c3)c3ccccc3nc-2c1=O | – | 0 | 0 | – | 0 | 0 | – | 100 | Mean survival days (Mus musculus [12]): 0.4 days; Mean survival days (Mus musculus [25]): 0.5 days; Cured (Mus musculus [13]): 0%; Cured (Mus musculus [24]): 50% |
| Cn1c(=O)nc2n(-c3ccc(C#N)cc3)c3ccccc3nc-2c1=O | 0 | – | – | – | 0 | 0 | – | – | Cured (Mus musculus [26]): 0%; Cured (Mus musculus [8]): 0%; Cured (Mus musculus [27]): 0% |
